# Legend:
# [1] = tested on: mitochondrial ECT complex1; test: Oxygen consumption in permeabilized fresh hepatocytes; type: cell-based; conditions: permeabilized rat liver hepatocytes, state 3, 2 min after addition
# Description: Rat liver hepatocytes were isolated from overnight-starved animals by enzymatic digestion with collagenase according to the method of Berry and Friend modified by Groen.
# Primary hepatocytes were directly used after isolation (for metabolic analyses). Cells were maintained at a constant temperature of 37° C. in a humidified atmosphere containing 5% CO2/95% air. The medium was removed after 4 h (time necessary for cell attachment) and replaced by fresh medium.
# (§1) Oxygen consumption was measured in a thermostatically controlled oxigraph vessel equipped with a Clarck oxygen electrode at 37° C. (Strathkelvin MS200A system).
# (§2) Experiment was started by the addition of 100 μg/ml digitonine and either 5 mM Glutamate plus 2.5 mM Malate or 5 mM Succinate plus 1 μM rotenone, followed by the addition of 500 μM ADP (state 3) then 2 μg/ml Oligomycin (state 4).
# Primary hepatocytes: 5.105 fresh hepatocytes were added in the oxigraph chamber containing respiration buffer (KET buffer: KCl 125 mM, EGTA 1 mM, Tris 20 mM) supplemented with 0.1% BSA, 5 mM inorganic phosphate (Pi). The final volume was 1 ml. Oxygen consumption rate was measured before and after the addition of compound 1 (1, 20, 50 or 100 μM) either in resting (state 2) or phosphorylating (state 3) condition.
# (§3) All measures were realized 2 min after drugs addition.
# [2] = tested on: RL follicular lymphoma cells; test: WST-1 cell viability test, RL follicular lymphoma cells; type: cell-based; conditions: Homo sapiens, 24 hours incubation
# From the text: (§4) RL cells (from ATCC, CRL-2261), SUDHL-4 cells (from ATCC, CRL-2957), GRANTA cells, BJAB Burkitt lymphoma cells, SUDHL4 DLBCL lymphoma cells, REC-1 Mantle lymphoma cells, RL follicular lymphoma cells, MTA NK/T lymphoma cells, HUT-78 Sesary T lymphoma cells, Karpas-384 gamma/delta PTCL lymphoma cells and SR-786 ALCL/Alk+ lymphoma Wild type/rescue MEF_LKB1+/+(mouse embryonic fibroblasts) cells were taken as a control; and mutated MEF_LKB−/− cells in which LKB1 gene was invalidated (Bardeesy et al., 2002). All cells were grown in flasks in RPMI 1640 Glutamax medium 11 mM Glucose supplemented with 10% fetal bovine serum and 1% penicillin-streptomycin medium supplemented with 10% fetal bovine serum and 1% penicillin-streptomycin. Cells were maintained at a constant temperature of 37° C. in a humidified atmosphere containing 5% CO2/95% air.
# (§5) Drugs (compound 1 and Metformin) were initially diluted in DMSO (=vehicle dimethylsulfoxide). […] Lymphoma cells in exponential phase of growth were counted and assessed for more than 95% viability by trypan blue coloration. […] The formazan dye produced by viable cells can be quantified by measuring the absorbance at 440 nm. Cell viability was assessed comparing wells containing drugs to those with vehicle only. […]
# [3] = tested on: Karpas-384 gamma/delta PTCL lymphoma cells; test: WST-1 cell viability test, Karpas-384 lymphoma cells; type: cell-based; conditions: Homo sapiens, 24 hours incubation
# From the text: as §4, §5
# [4] = tested on: mitochondrial ECT complex1; test: Oxygen consumption in permeabilized tumoral cells (RL, SUDHL4, GRANTA); type: cell-based, human
# Description: Human Cell lines: RL cells (from ATCC, CRL-2261) and SU-DHL-4 cells (from ATCC, CRL-2957) were grown in flasks in RPMI 1640—Glutamax medium supplemented with 10% fetal bovine serum and 1% penicillin-streptomycin. GRANTA cells were grown in flasks in DMEM-Glutamax medium supplemented with 10% fetal bovine serum and 1% penicillin-streptomycin. Cells were maintained at a constant temperature of 37° C. in a humidified atmosphere containing 5% CO2/95% air.
# as §1, §2
# Cell lines: RL, SU-DHL-4 or GRANTA cells were centrifuged and counted. A cell suspension (100 million of trypan blue negative cells per ml) was prepared in respiration buffer. 10 million cells were added in the oxigraph chamber containing respiration buffer. The final volume was 1 ml. compound 1 (0.5 to 20 μM) was added to permeabilized cells after the addition of ADP or oligomycin.
# as §3
# INS-1 cells = test: WST-1 cell viability test, pancreatic neuroendocrine tumor cell line INS-1; type: cell-based
# Description: (§6) Drugs (compound 1 and Metformin) were initially diluted in DMSO (=vehicle dimethylsulfoxide). Appropriate dilutions of these stocks were performed in DMSO and finally in culture medium; 15 μl of each dilution was distributed in 4 wells (replicates) according to the plate schedule to obtain final drug concentrations (0.1 μM to 1 mM for metformin and 1 μM to 200 μM for compound 1) after cells were added. Control wells with vehicle at the appropriate dilution only were included. Lymphoma cells in exponential phase of growth were counted and assessed for more than 95% viability by trypan blue coloration. […] Adherent cells (MEFs cells and INS-1 cells were seeded the day before to obtain 80% confluence the day of experiment. Culture medium was renewed with 35 μL fresh medium and 15 μl of appropriated drug dilution was then added. These plates were incubated 24 hours at 37° C./5% CO2. Then addition of 5 μl of WST-1 cell proliferation reagent (Roche, #11644807001) was performed, before incubation 2-4 hours at 37° C. and lecture of the absorbance following the manufacturer instructions. WST-1 assays are non-radioactive, rapid and more sensitive than MTT, XTT, or MTS-based assays. The WST-1 assay is based on the cleavage of the tetrazolium salt WST-1 to formazan by cellular mitochondrial dehydrogenases. […] Cell viability was assessed comparing wells containing drugs to those with vehicle only. […]
# [5] = tested on: Diffuse Large B Cell Lymphoma (SUDHL-4 model) xenograft; test: CDX xenograft tumor volume, SUDHL-4 model; type: in vivo, female SCID mice; conditions: SUDHL-4 xenograft, 50 mg/kg intraperitoneal five times a week, versus DMSO control
# From the text: (§7) CDX (cell derived xenografts) models of human NHL were used: Follicular Lymphoma (RL model), Diffuse Large B Cell Lymphoma (SUDHL-4 model). Cells were subcutaneously implanted; since the tumor growth was not homogeneous, it was decided to implant surgically 2×2 mm pieces from these initial tumours. Animals were female SCID mice.
# (§8) Mice were randomized when the tumors reach a mean volume of 100 mm^3 for the 2 groups (control and compound 1). […] The endpoints are defined by animal ethics as a tumor diameter of >18 mm, significant weight loss or alteration of animal well-being. In order to assess the effectiveness of the compound 1 on tumorigenesis, tumor volume was measured three times a week. The sizes of the primary tumors were measured using calipers and the tumor volume (TV) was extrapolated to a sphere using the formula TV=4/3 π×r3, by calculating the mean radius from the two measurements. The median and standard deviation were also calculated for each group. Median is preferred to mean in order to exclude the extreme values.
# (§9) COMPOUND 1 was administered by intraperitoneal injection five times a week, at dose 50 mg/kg. Control DMSO was administered also by intraperitoneal injection five times a week. […]
# (§10) Unless specified, the non-parametric Mann-Whitney test was performed on the tumor volume values (mm^3) measured on the day of the first euthanasia.
# [6] = tested on: MEF_LKB-/- and MEF_LKB1+/+ cells; test: WST-1 cell viability test, MEF cells with or without the LKB1 gene; type: cell-based, mouse; conditions: MEF_LKB-/- versus MEF_LKB1+/+, 24 hours
# Description: as §6
# [7] = tested on: Follicular Lymphoma (RL model) xenograft; test: CDX xenograft tumor volume, RL model; type: in vivo, female SCID mice; conditions: 50 mg/kg intraperitoneal five times a week, versus DMSO control
# From the text: as §7, §8, §9, §10
# [8] = tested on: Human B lymphoma and T lymphoma cell lines; test: WST-1 cell viability test, panel of human B and T lymphoma cell lines; type: cell-based
# From the text: as §4, §5
# [9] = tested on: Karpas-422 DLBCL lymphoma; test: Apoptosis by Annexin V/PI flow cytometry, Karpas-422; type: cell-based, human; conditions: Karpas-422, 10 μM, 48 hours
# Description: (§11) All the cells were routinely maintained in RPMI 1640 culture medium 11 mM glucose supplemented with 10% FCS. The day of experiment, cells (80 to 100.10^3/well) in exponential phase of growth were seeded in 96 wells plates, in 100 μl of culture medium final volume, in absence (not treated: NT) or presence of indicated compounds concentrations. Stocks of compounds were 10 mM in DMSO, and final DMSO concentration in assay was 0.1%. The control not treated (NT) assays contains 0.1% DMSO. After 48h of incubation at 37° C., cells were immediately analyzed by flow cytometry. Apoptosis was detected using Annexin V/PI staining protocol, according to manufacturer indications.
# (§12) Compounds 2 to 4 (named respectively C2 to C4 in the figures) were tested and compared with IACS-010759 (IACS), an OXPHOS inhibitor in clinical phase 1 trial which is assessed in parallel (Molina et al., 2018).
# [10] = tested on: panel of hematological cell lines; test: Live cell number by flow cytometry, panel of hematological cell lines; type: cell-based, human; conditions: 10 μM, 48 hours
# Description: as §11, §12
IC50 [2] [µM],IC50 [3] [µM],"dose inhibiting oxygen consumption, tumoral cells versus fresh hepatocytes ([4]; permeabilized tumoral cells (RL, SUDHL4, GRANTA) compared with permeabilized fresh hepatocytes)",IC50 compared with IC50 of metformin (INS-1 cells; 24 hours incubation),"IC50 (INS-1 cells; Rattus norvegicus, INS1, 24 hours incubation) [µM]","IC50 compared with IC50 of metformin ([8]; all lymphomas, 24 hours incubation, WST-1)",Structure (SMILES),mitochondrial oxygen consumption [1],"mitochondrial oxygen consumption ([4]; permeabilized RL, SUDHL4 and GRANTA cells, state 3, 2 min after addition)",tumor growth (tumor volume) [5],toxicity on cells with or without LKB1 (viability) [6],tumor growth (tumor volume) [7],"sensitivity of lymphoma cell lines (viability) ([8]; human B and T lymphoma, 24 hours, 1 μM to 200 μM)",apoptosis (apoptotic cells/cell decrease) [9],number of living cells [10]
< 10,< 10,about 25 times smaller,far below IC50 of metformin,< 10,far below IC50 of metformin,N=C(Nc1ccccc1)SCCCCCCSC(=N)Nc1ccccc1 [compound 1],inhibits mitochondrial oxygen consumption in all cells tested,inhibits mitochondrial oxygen consumption in all cells tested,reduces tumor growth,more toxic for the cells that do not express the LKB1 protein,reduces tumor growth,sensible to compound 1,,
,,,,,,N=C(Nc1ccc2ccccc2c1)SCCCCCCSC(=N)Nc1ccc2ccccc2c1 [compound 4],,,,,,,can induce apoptosis,induces a differential decrease in the number of living cells

# Source: patent US12371402B2, “Mitochondrial activity inhibitors targeting tumoral metabolism” (CENTRE LEON BERARD, priority 2018, dated 2025)
